Assay results: patent publication US9862711B2, “Pyrazine derivatives as phosphatidylinositol 3-kinase inhibitors” (NOVARTIS AG, priority 2014, dated 2018)

Target: PI 3-kinase beta (Homo sapiens (Human), UniProt P42338)
Assay: Cellular p-Akt (S473) SureFire assay, Rat-1_PI3Kbeta cells (Assay I)
Format: cell-based
Settings: p-AKT (Ser473) in Rat-1 cells expressing myr-HA-hp110 beta, 1 h compound; read-out: Assay I PI3Kβ IC50
Description: Cellular Assays for PI 3-Kinase Alpha (H), Beta (I) and Delta (J)
AlphaScreen (Amplified Luminescent Proximity Homogeneous Assay, ALPHA, Perkin Elmer) is a non-radioactive bead-based proximity assay technology to study biomolecular interactions in a homogenous microtiter plate format. The brand name SureFire denotes AlphaScreen assays that are adapted to quantify the phosphorylation of endogenous cellular proteins in cell lysates, by using matched antibody pairs, which consist of an anti-phospho-kinase and an anti-kinase antibody. The assay allows characterization of kinase signaling in cells as well as measurement of kinase inhibitor effects.
Rat-1 cell lines stably overexpressing activated PI 3-kinase class I isoforms Rat-1 pBABEpuro Myr-HA-hp110 delta clone 5 (Rat-1_PI3Kdelta) and Rat-1 pBABEpuro Myr-HA-hp110 alpha clone 6 (Rat-1_PI3Kalpha) and Rat-1 pBABEpuro Myr-HA-hp110 beta (Rat-1_PI3beta) were cultivated in complete growth medium (DMEM high glucose, 10% (v/v) fetal bovine serum, 1% (v/v) MEM NEAA, 10 mM HEPES, 2 mM L-glutamine, puromycin (10 μg/mL for Rat-1_PI3Kdelta and Rat-1_PI3Kalpha, 4 ug/mL for Rat-1_PI3beta), 1% (v/v) Pen/Strep) to 90% confluency at 37° C./5% CO2/90% humidity in a humidified CO2 incubator and were split twice a week. The following materials were used for p-AKT(5473) detection in Rat-1 cell lysates: Dulbecco's modified Eagle's medium (DMEM) high glucose (Gibco Invitrogen, Basel, Switzerland, Cat. No. 41965), heat inactivated fetal bovine serum, qualified (HI FBS; Gibco Invitrogen, Basel, Switzerland, Lot. No. 16140), MEM non essential amino acids (NEAA; Gibco Invitrogen, Basel, Switzerland, Cat. No. 11140), HEPES (Gibco Invitrogen, Basel, Switzerland, Cat. No. 15630), penicillin/streptomycin (Pen/Strep, 100×; Gibco Invitrogen, Basel, Switzerland, Cat. No. 15140-122), L-glutamine (Gibco Invitrogen, Basel, Switzerland, Cat. No. 25030), puromycin (Sigma Aldrich, Buchs, Switzerland, Cat. No. P9620), DMSO (MERCK, Dietikon, Switzerland, Cat. No. 8.02912.2500), H2O, MilliQ-H2O unless otherwise stated (MILLIPORE QGARDOOR1, Millipore, Zug, Switzerland), bovine serum albumine (BSA; Sigma Aldrich, Buchs, Switzerland Cat. No. A8412), SureFire p-Akt 1/2 (Ser473) Assay Kit (Perkin Elmer, Schwerzenbach, Switzerland, Cat. No. TGRAS50K).
The p-Akt (S473) SureFire assay measures the phosphorylation of endogenous cellular Akt 1/2 at Ser473 in cell lysates. Using Rat-1 cells stably expressing myr-HA-tagged versions of the human PI3Kdelta, PI3Kalpha, or PI3Kbeta p110 catalytic subunit isoforms, the assay was developed as a two-plate protocol in a 384-well format.
For compound testing, the cells were seeded at a density of 4000 (Rat-1_PI3Kdelta), 7500 (Rat-1_PI3Kalpha), or 6200 (Rat-1_PI3Kbeta) cells in 20 μl complete growth medium into cell culture treated 384-well plates and were grown at 37° C./5% CO2/90% humidity for 24 h. Shortly before compound transfer, the complete medium was removed, 30 μl assay buffer (DMEM high glucose, 1×MEM NEAA, 10 mM HEPES, 2 mM L-glutamine, 0.1% (w/v) BSA) was added and 10 μl of the compound predilutions were transferred to the cells. After treatment with compound for 1 h, the cells were lysed by the addition of 20 μl lysis buffer supplemented with 0.24% (w/v) BSA. Detection of p-AKT (Ser473) was performed with the SureFire p-Akt 1/2 (Ser473) Assay Kit according to the manufacturer's instructions using 5 ul of cell lysate in a total detection volume of 12 μl.
IC50 values of the percentage inhibition of each compound at 8 concentrations (usually 10, 3.0, 1.0, 0.3, 0.1, 0.030, 0.010 and 0.003 μM) n=2 were derived by fitting a sigmoidal dose-response curve to a plot of assay readout over inhibitor concentration as described. All fits were performed with the program XLfit4 (ID Business Solutions, Guildford, UK).

Sequence of PI 3-kinase beta (P42338 whole entry): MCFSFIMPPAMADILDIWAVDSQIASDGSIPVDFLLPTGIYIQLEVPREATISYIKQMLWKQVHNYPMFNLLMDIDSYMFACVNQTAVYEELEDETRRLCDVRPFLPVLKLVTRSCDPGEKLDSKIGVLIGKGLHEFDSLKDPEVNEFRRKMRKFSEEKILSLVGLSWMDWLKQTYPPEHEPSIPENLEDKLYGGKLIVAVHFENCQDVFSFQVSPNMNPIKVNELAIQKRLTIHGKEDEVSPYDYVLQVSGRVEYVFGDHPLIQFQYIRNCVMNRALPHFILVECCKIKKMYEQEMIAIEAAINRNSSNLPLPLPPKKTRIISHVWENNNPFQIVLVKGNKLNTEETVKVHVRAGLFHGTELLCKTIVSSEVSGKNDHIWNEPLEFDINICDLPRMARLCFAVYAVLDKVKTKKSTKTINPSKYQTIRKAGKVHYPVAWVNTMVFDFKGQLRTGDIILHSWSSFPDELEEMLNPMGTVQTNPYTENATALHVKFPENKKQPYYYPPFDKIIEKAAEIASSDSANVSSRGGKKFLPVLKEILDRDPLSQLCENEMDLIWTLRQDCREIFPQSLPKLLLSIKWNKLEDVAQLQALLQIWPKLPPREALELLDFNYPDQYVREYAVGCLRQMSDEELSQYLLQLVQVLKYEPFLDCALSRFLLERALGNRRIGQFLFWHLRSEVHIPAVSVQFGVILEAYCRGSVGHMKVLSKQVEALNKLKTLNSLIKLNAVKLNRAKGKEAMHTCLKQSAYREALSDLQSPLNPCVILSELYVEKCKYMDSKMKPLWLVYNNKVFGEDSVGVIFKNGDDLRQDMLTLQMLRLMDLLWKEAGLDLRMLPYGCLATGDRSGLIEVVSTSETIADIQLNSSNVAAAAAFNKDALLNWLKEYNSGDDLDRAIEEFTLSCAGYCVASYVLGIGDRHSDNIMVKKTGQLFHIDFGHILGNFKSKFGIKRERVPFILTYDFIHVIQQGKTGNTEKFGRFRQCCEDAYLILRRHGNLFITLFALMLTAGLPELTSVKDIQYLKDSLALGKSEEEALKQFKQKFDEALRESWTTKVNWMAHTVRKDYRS
Sequence of PI 3-kinase beta (Q63787 whole entry partner): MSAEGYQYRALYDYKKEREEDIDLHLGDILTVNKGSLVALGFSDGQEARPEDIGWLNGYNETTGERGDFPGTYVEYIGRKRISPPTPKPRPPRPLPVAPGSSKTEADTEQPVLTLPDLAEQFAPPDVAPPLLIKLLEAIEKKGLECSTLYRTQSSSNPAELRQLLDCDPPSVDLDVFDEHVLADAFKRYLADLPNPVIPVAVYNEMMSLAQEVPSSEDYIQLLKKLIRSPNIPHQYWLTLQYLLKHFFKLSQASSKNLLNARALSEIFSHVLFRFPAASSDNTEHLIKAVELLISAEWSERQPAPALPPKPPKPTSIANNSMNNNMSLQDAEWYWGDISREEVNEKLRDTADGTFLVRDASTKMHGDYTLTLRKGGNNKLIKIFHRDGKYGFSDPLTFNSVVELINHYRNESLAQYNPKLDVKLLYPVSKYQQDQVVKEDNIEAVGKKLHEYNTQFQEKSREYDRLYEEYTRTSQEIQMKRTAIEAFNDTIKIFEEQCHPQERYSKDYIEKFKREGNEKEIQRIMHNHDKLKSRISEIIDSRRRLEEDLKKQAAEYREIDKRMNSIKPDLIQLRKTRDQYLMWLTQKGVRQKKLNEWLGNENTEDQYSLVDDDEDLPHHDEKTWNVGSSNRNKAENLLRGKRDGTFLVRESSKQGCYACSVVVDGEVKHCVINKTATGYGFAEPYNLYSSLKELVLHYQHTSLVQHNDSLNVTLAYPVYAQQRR

IC50 | SMILES
3.18 µM | Cc1ccc(S(=O)(=O)NCCC(C)(C)O)cc1-c1cncc(-c2cn(C)nc2C)n1 [Example 3, 3-[6-(1,3-Dimethyl-1H-pyrazol-4-yl)-pyrazin-2-yl]-N-(3-hydroxy-3-methyl-butyl)-4-methyl-benzenesulfonamide]
> 10 µM | Cc1ccc(S(=O)(=O)N[C@H]2CC[C@H](O)CC2)cc1-c1cncc(-c2cccnc2)n1 [Example 11, Trans N-(4-Hydroxy-cyclohexyl)-4-methyl-3-(6-pyridin-3-yl-pyrazin-2-yl)-benzenesulfonamide]
0.833 µM | Cc1ccc(S(=O)(=O)NCC2(C)COC2)cc1-c1cncc(-c2cn(C)nc2C)n1 [Example 4, Trans 3-[6-(1,3-Dimethyl-1H-pyrazol-4-yl)-pyrazin-2-yl]-4-methyl-N-(3-methyl-oxetan-3-ylmethyl)-benzenesulfonamide]
6.98 µM | Cc1ccc(S(=O)(=O)NCCC(C)(C)O)cc1-c1cncc(-c2cnn(CCN3CCOCC3)c2)n1 [Example 9, N-(3-Hydroxy-3-methyl-butyl)-4-methyl-3-{6-[1-(2-morpholin-4-yl-ethyl)-1H-pyrazol-4-yl]-pyrazin-2-yl}-benzenesulfonamide]
0.784 µM | Cc1ccc(S(=O)(=O)NCC(C)(C)O)cc1-c1cncc(-c2cn(C)nc2C)n1 [Example 2, 3-[6-(1,3-Dimethyl-1H-pyrazol-4-yl)-pyrazin-2-yl]-N-(2-hydroxy-2-methyl-propyl)-4-methyl-benzenesulfonamide]
3.83 µM | Cc1ccc(S(=O)(=O)NCCC(C)(C)O)cc1-c1cncc(-c2cn(CCN3CCOCC3)nc2C)n1 [Example 10, N-(3-Hydroxy-3-methyl-butyl)-4-methyl-3-{6-[3-methyl-1-(2-morpholin-4-yl-ethyl)-1H-pyrazol-4-yl]-pyrazin-2-yl}-benzenesulfonamide]
9.42 µM | Cc1ncc(-c2cncc(-c3cc(S(=O)(=O)N[C@H]4CC[C@H](O)CC4)ccc3C)n2)s1 [Example 5, Trans N-(4-Hydroxycyclohexyl)-4-methyl-3-(6-(2-methylthiazol-5-yl)pyrazin-2-yl)benzenesulfonamide]
